In this test the test system is Plasmodium falciparum. The test is described as follows: Antimalarial activity against Plasmodium falciparum K1 by [3H]hypoxanthine uptake. In kind it is functional, organism-based.

SMILES strings stand for the structures. pEC50: −log10 of the molar value.

With `C=C(C)[C@H](CC=C(C)C)Cc1c(OC)cc(O)c2c1O[C@H](c1c(O)cccc1O)CC2=O` [EXIGUAFLAVONE B], the pEC50 was 4.80.

With `Oc1ccc2c(c1)OC[C@@H]1c3cc4c(cc3O[C@H]21)OCO4` [(+)-MAACKIAIN], the pEC50 is 3.78.

Consider `COc1c(Cc2ccccc2O)c(O)c(Cc2ccccc2O)c(O)c1C(=O)CCc1ccccc1` [DIUVARETIN], for which the half-maximal effective concentration (EC50) is 4.2 µg/mL. On to `Oc1ccc(-c2cc3cc4c(cc3o2)OCO4)c(O)c1`, for which the pEC50 is 4.00.

`COc1cc(O)c(Cc2ccccc2O)c(O)c1C(=O)CCc1ccccc1` [UVARETIN] registered an EC50 of 3.49 µg/mL. `C=C(C)[C@H](CC=C(C)C)Cc1c(O)cc(O)c2c1O[C@H](c1c(O)cccc1O)CC2=O` [EXIGUAFLAVONE A] showed a pEC50 of 4.97.
